Measured values published in PMC5908784, “Extracellular loops 2 and 3 of the calcitonin receptor selectively modify agonist binding and efficacy” (Biochemical Pharmacology, 2018).
Substitutions are numbered along the chain they refer to. Where no end group is shown, it is not given here.

Key:
Assay in all cases: Homologous whole cell competition binding
Conditions in all cases: homologous competition of 125I-sCT(8-32), whole cells, mean ± S.E.M., SEM
hCTR L368A = biological target: T1, hCTR L368A (Homo sapiens, UniProt P30988, L368A)
T1 construct: c-Myc (N); expressed in transfected cells
T1 sequence (P30988 25-474 L368A): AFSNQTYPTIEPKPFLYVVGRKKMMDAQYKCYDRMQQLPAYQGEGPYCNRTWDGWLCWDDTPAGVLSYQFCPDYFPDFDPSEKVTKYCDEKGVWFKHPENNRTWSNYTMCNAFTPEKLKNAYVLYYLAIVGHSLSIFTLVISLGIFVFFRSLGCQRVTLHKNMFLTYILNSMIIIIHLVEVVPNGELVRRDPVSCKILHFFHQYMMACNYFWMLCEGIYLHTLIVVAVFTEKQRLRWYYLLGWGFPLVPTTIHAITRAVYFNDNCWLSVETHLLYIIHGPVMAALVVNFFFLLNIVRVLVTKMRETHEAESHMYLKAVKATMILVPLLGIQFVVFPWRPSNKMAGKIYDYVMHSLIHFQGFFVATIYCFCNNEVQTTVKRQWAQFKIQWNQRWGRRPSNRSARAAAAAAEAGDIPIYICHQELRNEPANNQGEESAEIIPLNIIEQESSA
Procedure, shortened: (§1)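 Cells were seeded, cultured overnight, then exposed overnight at 4 °C to two concentrations of ^125I-sCT(8-32) with increasing unlabelled sCT(8-32). Unbound ligand was washed off before counting. Affinity is given as pKi after radioligand occupancy correction.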

hCTR R362A = biological target: T2, hCTR R362A (Homo sapiens, UniProt P30988, R362A)
T2 construct: expressed in transfected cells
T2 sequence (P30988 25-474 R362A): T1 sequence (P30988 25-474 L368A) with R338A, A344L
Procedure, shortened: as §1

hCTR S292A = biological target: T3, hCTR S292A (Homo sapiens, UniProt P30988, S292A)
T3 construct: expressed in transfected cells
T3 sequence (P30988 25-474 S292A): T1 sequence (P30988 25-474 L368A) with S268A, A344L
Procedure, shortened: as §1

hCTR T295A = biological target: T4, hCTR T295A (Homo sapiens, UniProt P30988, T295A)
T4 construct: c-Myc (N); expressed in transfected cells
T4 sequence (P30988 25-474 T295A): T1 sequence (P30988 25-474 L368A) with T271A, A344L
Procedure, shortened: as §1

Ki (hCTR L368A): 209 pM | Ki (hCTR R362A): 219 pM | Ki (hCTR S292A): 63.1 pM | Ki (hCTR T295A): 50.1 pM
Substance: VLGKLSQELHKLQTYPRTNTGSGTP-NH2 [sCT(8-32)]
